Assay results published in patent US10381110B2, “Molecules” (University of Dundee, priority 2010, dated 2019).
Counter-ions that a name gives are not always drawn. Like-named read-outs stand apart in the source and are kept apart here.

Experiments:
Alpha1D = biological target: T1, Alpha1D (Homo sapiens, UniProt P25100); assay: Primary radioligand binding assay (NIMH PDSP); details: primary radiobinding assay, [3H]Prazosin
T1 sequence (P25100 1-572): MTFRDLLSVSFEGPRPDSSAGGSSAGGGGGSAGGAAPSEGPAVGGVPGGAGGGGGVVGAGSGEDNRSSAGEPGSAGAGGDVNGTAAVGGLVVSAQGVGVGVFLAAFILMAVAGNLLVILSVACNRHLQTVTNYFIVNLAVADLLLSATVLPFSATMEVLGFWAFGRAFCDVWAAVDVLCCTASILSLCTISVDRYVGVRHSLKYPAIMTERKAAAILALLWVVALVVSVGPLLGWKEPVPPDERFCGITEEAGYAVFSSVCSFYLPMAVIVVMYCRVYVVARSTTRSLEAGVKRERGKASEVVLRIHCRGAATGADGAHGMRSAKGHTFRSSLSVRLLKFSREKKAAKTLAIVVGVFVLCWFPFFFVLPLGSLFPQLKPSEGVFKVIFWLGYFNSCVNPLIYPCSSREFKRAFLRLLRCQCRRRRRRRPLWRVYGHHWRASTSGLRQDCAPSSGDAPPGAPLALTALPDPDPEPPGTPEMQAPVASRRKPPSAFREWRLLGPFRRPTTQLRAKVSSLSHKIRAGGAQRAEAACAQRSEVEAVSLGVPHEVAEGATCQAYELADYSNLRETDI

dopamine D3 = dopamine D3 (Homo sapiens, UniProt P35462); assay: Primary radioligand binding assay (NIMH PDSP); details: primary radiobinding assay, N-methylspiperone; further: test concentration or dose not given here
Sequence of dopamine D3 (P35462 whole entry): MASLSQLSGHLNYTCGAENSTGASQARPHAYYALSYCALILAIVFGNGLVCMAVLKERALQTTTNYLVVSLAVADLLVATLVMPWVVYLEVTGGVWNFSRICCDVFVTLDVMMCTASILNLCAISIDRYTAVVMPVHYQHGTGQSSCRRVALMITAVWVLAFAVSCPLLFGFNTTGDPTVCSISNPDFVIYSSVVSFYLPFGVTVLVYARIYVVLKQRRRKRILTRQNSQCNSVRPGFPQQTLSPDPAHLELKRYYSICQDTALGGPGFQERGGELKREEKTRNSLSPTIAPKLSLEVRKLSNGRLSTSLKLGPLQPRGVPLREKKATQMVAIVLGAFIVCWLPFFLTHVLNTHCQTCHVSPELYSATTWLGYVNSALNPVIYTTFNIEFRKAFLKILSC

dopamine D4 = biological target: T2, dopamine D4 (Homo sapiens, UniProt P21917); assay: Primary radioligand binding assay (NIMH PDSP); details: primary radiobinding assay, N-methylspiperone; on 5ht1a (% inh): test concentration or dose not given here; on D4 (% inh): test concentration or dose not given here
T2 sequence (P21917 1-419): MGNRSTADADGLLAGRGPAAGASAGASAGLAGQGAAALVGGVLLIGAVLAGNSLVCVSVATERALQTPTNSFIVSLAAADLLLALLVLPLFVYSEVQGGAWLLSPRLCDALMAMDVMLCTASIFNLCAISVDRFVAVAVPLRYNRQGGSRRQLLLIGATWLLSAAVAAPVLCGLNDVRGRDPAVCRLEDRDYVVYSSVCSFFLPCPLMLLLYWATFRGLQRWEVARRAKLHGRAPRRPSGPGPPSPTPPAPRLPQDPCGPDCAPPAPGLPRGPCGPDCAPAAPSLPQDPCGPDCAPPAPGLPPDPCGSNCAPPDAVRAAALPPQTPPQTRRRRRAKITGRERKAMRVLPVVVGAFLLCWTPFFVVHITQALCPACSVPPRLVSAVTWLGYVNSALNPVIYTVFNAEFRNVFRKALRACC

5-HT2B = 5-HT2B (Homo sapiens, UniProt P41595); assay: Secondary radioligand binding assay (Ki)
Sequence of 5-HT2B (P41595 whole entry, species assumed): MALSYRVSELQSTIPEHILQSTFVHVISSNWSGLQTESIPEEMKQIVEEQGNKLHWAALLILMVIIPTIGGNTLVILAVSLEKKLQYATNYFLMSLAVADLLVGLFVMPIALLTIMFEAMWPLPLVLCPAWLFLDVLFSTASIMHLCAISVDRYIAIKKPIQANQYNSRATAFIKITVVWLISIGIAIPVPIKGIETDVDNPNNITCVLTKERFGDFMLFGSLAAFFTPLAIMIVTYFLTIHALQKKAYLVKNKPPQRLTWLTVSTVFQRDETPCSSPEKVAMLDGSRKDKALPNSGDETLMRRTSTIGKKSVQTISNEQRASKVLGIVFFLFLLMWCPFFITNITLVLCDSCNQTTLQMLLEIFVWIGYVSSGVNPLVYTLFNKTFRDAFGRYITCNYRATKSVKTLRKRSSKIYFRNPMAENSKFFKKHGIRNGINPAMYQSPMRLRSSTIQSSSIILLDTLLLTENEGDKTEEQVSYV
Procedure: (§1) Assay Buffer: Standard Binding Buffer (50 mM Tris-HCl, 10 mM MgCl2, 1 mM EDTA, pH 7.4)
(§2) Membrane Fraction Source: Transiently or stably transfected cell lines (e.g., HEK293, COS, CHO, NIH3T3)
(§3) Radioligand is diluted to five times the assay concentration (see Table 18) in Standard Binding Buffer. Typically, the assay concentration of radioligand is a value between one half the KD and the KD of a particular radioligand at its target. 50 μl aliquots of radioligand are dispensed into the wells of a 96-well plate containing 100 μl of Standard Binding Buffer. Then, duplicate 50 μl aliquots of the test and reference compound dilutions are added.
(§4) The 250 μl reactions are incubated at room temperature and shielded from light (to prevent photolysis of light-sensitive ligands) for 1.5 hours, then harvested by rapid filtration onto Whatman GF/B glass fiber filters pre-soaked with 0.3% polyethyleneimine using a 96-well Brandel harverster. Four rapid 500 μl washes are performed with chilled Standard Binding Buffer to reduce non-specific binding. Filters are placed in 6 ml scintillation tubes and allowed to dry overnight. The next day, 4 ml of EcoScint scintillation cocktail (National Diagnostics) are added to each tube. The tubes are capped, labeled, and counted by liquid scintillation counting. […] The filter mats are dried, then scintillant is melted onto the filters and the radioactivity retained on the filters is counted in a Microbeta scintillation counter.
(§5) Raw data (dpm) representing total radioligand binding (i.e. specific+non-specific binding) are plotted as a function of the logarithm of the molar concentration of the competitor (i.e. test or reference compound).

α1A (Alpha1A) = biological target: T3, α1A (Alpha1A) (Homo sapiens, UniProt P35348); assay: Secondary radioligand binding assay (Ki)
T3 sequence (P35348 1-466): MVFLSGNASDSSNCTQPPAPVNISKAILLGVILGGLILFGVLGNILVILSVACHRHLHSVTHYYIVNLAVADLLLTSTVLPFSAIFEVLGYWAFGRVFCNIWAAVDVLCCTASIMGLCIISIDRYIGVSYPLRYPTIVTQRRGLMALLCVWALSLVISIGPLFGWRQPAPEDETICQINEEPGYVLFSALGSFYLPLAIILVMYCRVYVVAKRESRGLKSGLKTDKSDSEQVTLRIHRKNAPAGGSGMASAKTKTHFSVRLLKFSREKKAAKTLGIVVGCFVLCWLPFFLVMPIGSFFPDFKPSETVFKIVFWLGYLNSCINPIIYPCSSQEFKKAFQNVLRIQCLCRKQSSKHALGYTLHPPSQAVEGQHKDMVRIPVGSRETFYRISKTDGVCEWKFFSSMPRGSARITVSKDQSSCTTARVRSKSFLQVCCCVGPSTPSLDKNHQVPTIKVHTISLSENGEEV
Procedure: as §3, §4, §5
Adrenergic Receptors: α1A, α1B, α2A, α2B, α2C, β1, β2, β3
(§6) Membrane Fraction Source: Transiently or stably transfected cell lines (e.g. HEK293, COS, CHO, NIH3T3)
The method is carried out in the manner described for the serotonin receptor assay above, except where described below. Eleven dilutions (5× assay concentration) of the test and reference (see Table 20) compounds are prepared in the appropriate buffer by serial dilution, as previously described. Radioligand is diluted to five times the assay concentration (see Table 21) in the appropriate buffer.
The 250 μl reactions are incubated at room temperature and shielded from light (to prevent photolysis of light-sensitive ligands) for 1 hour (for α1 receptors, 40 min for α2 receptors, and 1.5 hours for β receptors), then harvested by rapid filtration onto Whatman GF/B glass fiber filters pre-soaked with 0.3% polyethyleneimine using a 96-well Brandel harverster. Four rapid 500-μl washes are performed with chilled distilled water (for α1 and β receptors) or 0.1% polyethyleneimine (for α2 receptors) to reduce non-specific binding. Filters are placed in 6 ml scintillation tubes and allowed to dry overnight and the samples are treated to obtain data as described above.

5HT1a [1] = biological target: T4, 5HT1a (Homo sapiens, UniProt P08908); assay: Secondary radioligand binding assay (Ki); details: for α1/D2: Table 24: Selectivity of 5HT1A over average of α1 Receptors; for α1A/D2 / α1B/D2 / α1D/D2: Table 24: Selectivity of 5HT1A over α1 Receptors, ratio of Ki
T4 sequence (P08908 1-422): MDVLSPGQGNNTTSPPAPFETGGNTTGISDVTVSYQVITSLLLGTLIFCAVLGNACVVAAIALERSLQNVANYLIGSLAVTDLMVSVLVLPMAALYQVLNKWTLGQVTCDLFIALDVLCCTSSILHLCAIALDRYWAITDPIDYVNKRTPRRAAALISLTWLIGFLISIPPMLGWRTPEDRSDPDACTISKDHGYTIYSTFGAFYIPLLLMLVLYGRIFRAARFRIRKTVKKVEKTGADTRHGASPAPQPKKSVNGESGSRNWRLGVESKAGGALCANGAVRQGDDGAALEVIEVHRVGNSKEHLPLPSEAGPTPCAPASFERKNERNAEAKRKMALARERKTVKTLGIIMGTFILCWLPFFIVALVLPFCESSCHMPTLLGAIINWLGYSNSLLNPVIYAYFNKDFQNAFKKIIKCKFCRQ
Procedure: as §1, §2, §3, §4, §5

Alpha1A = biological target: T5, Alpha1A (Homo sapiens, UniProt P35348); assay: Primary radioligand binding assay (NIMH PDSP); details: primary radiobinding assay, [3H]Prazosin; further: test concentration or dose not given here
T5 sequence (P35348 1-466): T3 sequence (P35348 1-466)

dopamine D2 [2] = biological target: T6, dopamine D2 (Homo sapiens, UniProt P14416); assay: Secondary radioligand binding assay (Ki); details: for α1/D2: Table 22: Selectivity of Dopamine D2 over average of α1 Receptors; for α1A/D2 / α1B/D2 / α1D/D2: Table 22: Selectivity of Dopamine D2 over α1 Receptors, ratio of Ki
T6 sequence (P14416 whole entry, species assumed): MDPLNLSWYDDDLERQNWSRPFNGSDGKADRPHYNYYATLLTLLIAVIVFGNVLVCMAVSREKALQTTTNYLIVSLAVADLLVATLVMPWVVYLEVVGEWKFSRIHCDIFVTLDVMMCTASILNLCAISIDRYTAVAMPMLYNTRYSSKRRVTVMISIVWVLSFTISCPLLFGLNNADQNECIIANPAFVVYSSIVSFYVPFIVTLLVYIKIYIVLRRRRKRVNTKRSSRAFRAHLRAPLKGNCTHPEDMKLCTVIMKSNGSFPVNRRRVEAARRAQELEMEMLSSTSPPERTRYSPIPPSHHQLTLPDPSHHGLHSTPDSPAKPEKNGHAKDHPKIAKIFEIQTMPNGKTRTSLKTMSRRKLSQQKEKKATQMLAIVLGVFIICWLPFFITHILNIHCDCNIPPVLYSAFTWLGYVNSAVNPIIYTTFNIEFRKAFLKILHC
Procedure: as §3, §4, §5
Assay Buffers: Dopamine Binding Buffer (50 mM NaCl, 50 mM HEPES-HCl, 5 mM MgCl2, 0.5 mM EDTA, pH 7.4)
as §6
The method is carried out in the manner described for the serotonin receptor assay above. Eleven dilutions (5× assay concentration) of the test and reference (see Table 19) compounds are prepared in Dopamine Binding Buffer by serial dilution, as previously described. Radioligand is diluted to five times the assay concentration (see Table 20) in Dopamine Binding Buffer.

5-HT5A = 5-HT5A (Homo sapiens, UniProt P47898); assay: Secondary radioligand binding assay (Ki)
Sequence of 5-HT5A (P47898 whole entry, species assumed): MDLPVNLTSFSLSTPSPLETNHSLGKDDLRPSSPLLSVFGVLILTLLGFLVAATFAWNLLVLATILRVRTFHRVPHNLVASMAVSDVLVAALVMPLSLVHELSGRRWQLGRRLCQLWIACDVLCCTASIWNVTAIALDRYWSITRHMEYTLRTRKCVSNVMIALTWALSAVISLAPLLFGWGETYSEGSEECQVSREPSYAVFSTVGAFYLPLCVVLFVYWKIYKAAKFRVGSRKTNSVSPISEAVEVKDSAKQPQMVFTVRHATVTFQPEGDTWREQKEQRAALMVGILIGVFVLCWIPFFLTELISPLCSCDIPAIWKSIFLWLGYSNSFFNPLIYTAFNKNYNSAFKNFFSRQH
Procedure: as §1, §2, §3, §4, §5

dopamine D2 [3] = biological target: T6, dopamine D2; assay: Primary radioligand binding assay (NIMH PDSP); details: primary radiobinding assay, [3H]N-methylspiperone; on 5ht1a (% inh): test concentration or dose not given here; on D4 (% inh): test concentration or dose not given here
dopamine D5 = dopamine D5 (Homo sapiens, UniProt P21918); assay: Primary radioligand binding assay (NIMH PDSP); details: primary radiobinding assay, [3H]SCH233930; further: test concentration or dose not given here
Sequence of dopamine D5 (P21918 whole entry): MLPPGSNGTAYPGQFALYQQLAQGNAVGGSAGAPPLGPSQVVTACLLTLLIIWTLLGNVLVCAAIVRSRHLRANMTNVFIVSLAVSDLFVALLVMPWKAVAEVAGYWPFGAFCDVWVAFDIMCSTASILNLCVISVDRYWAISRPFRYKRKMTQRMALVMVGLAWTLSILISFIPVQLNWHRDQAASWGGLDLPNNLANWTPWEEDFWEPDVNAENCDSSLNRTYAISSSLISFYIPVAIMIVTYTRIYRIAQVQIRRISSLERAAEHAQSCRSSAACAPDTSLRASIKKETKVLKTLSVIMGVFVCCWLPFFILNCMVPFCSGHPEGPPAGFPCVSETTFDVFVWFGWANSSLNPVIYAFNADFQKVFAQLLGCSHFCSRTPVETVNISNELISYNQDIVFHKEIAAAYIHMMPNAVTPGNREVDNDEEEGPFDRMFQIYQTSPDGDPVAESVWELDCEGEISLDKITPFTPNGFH

5HT1a [4] = biological target: T4, 5HT1a; assay: Primary radioligand binding assay (NIMH PDSP); details: primary radiobinding assay, [3H]8-OH-DPAT; on 5ht1a (% inh): test concentration or dose not given here; on D4 (% inh): test concentration or dose not given here
[5] = read-out: Experimental Receptor Binding Data-Ki ALPHA_1A, Table 25, GPCR panel
[6] = read-out: Experimental Receptor Binding Data-Ki D2, Table 25, GPCR panel

SMILES	Alpha1D (% inh) (Alpha1D)	D3 (% inh) (dopamine D3)	D4 (% inh) (dopamine D4)	Ki (5-HT2B) [nM]	Ki (α1A (Alpha1A); [5]) [nM]	Ki (α1A (Alpha1A); read-out: Kiα1A) [nM]	Ki (5HT1a [1]) [nM]	α1/D2 (5HT1a [1])	α1A/D2 (5HT1a [1])	α1B/D2 (5HT1a [1])	α1D/D2 (5HT1a [1])	Alpha1A (% inh) (Alpha1A)	α1/D2 (dopamine D2 [2])	α1A/D2 (dopamine D2 [2])	α1B/D2 (dopamine D2 [2])	α1D/D2 (dopamine D2 [2])	Ki (5-HT5A) [nM]	D2 (% inh) (dopamine D2 [3])	D5 (% inh) (dopamine D5)	5ht1a (% inh) (5HT1a [4])	also measured
COc1ccc2c(c1)C(=O)N(CCCN1CCN(c3ccccc3OC)CC1)C2 [GFR-VII-273]	99.3	94.1	99.6	19	64.9	64.9	6.5	24.0	10.0	49.7	12.5	102.2	0.12	0.080	0.398	0.100	2900	85	31.8	92.5	Ki (dopamine D2 [2]): 812 nM
COc1ccc2c(c1)C(=O)N(CCN1CCN(c3ccccc3OC)CC1)C2 [GFR-VII-280-HCl]	98.7	95.7	95.9	242			2.4	5.9	3.5	12.1	2.1	101.5	0.008	0.005	0.017	0.003	2490	69.8	6	92	Ki (α1A (Alpha1A)): 8.5 nM; Ki (dopamine D2 [2]): 1740 nM
COc1ccc2c(c1)C(=O)N(CCN1CCN(c3ccccc3OC)CC1)C2 [GFR-VII-280]	97.3	98.1	97.2		15.9	15.9		6.4	4.5	11.1	3.5	101.2	0.014	0.010	0.023	0.008		66.6	21.8	92.4	Ki (5-HT2B; read-out: Experimental Receptor Binding Data-Ki 5HT2B, Table 25, GPCR panel): 160 nM; Ki (5HT1a [1]; read-out: Experimental Receptor Binding Data-Ki 5HT1A, Table 25, GPCR panel): 3.5 nM; Ki (5HT1a [1]; read-out: Ki 5HT1A): 3.5 nM; Ki (dopamine D2 [2]; [6]): 1650 nM; Ki (dopamine D2 [2]; read-out: KiD2): 1650 nM; Ki (5-HT5A; read-out: Experimental Receptor Binding Data-Ki 5HT5A, Table 25, GPCR panel): 2150 nM
COc1cc2c(cc1OC)C(=O)N(CCCCN1CCN(c3ccccc3OC)CC1)C2 [GFR-VII-285]	96.8	100.5	91.6	41	0.9	0.9	23	0.4	0.04	0.8	0.2	102.7	0.053	0.006	0.124	0.028	2440	96.2	75.1	93.3	Ki (dopamine D2 [2]; [6]): 156 nM; Ki (dopamine D2 [2]; read-out: KiD2): 156 nM
COc1ccc2c(c1)CN(CCCN1CCN(c3ccccc3OC)CC1)C2=O [GFR-VII-290]	100.5	94.7	97.3	117	59.9	59.9		12.7	3.2	32.0	2.9	99.1	0.177	0.044	0.445	0.041	2470	82.1	32.5	98.3	Ki (5HT1a [1]; read-out: Ki 5HT1A): 19 nM; Ki (dopamine D2 [2]; [6]): 1370 nM; Ki (dopamine D2 [2]; read-out: KiD2): 1370 nM
CC1Cc2ccccc2N1C(=O)CN1CCN(Cc2ccccc2)CC1 (stereo not drawn) [STT-00185638, 2-[-4-(benzyl)-piperazin-1-yl]-1-(2-methy-2,3-dihydro-indol-1-yl)-ethanone]	42.8	63.6	99.4	879			7080					69.1					6770	66.2	9.7	64.9	Ki (α1A (Alpha1A)): 2060 nM; Ki (dopamine D2 [2]): 2460 nM
